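Dose response: 5 concentrations. Exposure: 48 h. Format: 96-well plates. Endpoint: linear interpolation; highest concentration if not reached. At the GI50, growth is halved.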 Calls of active or inactive are those of the source. Cut-off read from the data, not from the text of the source: active = GI50 up to about 1.1 µM and inactive = higher.
Legend:
Assay in all cases: inhibition of tumour cell growth, NCI panel, 48 h
COLO 205 = test system: COLO 205
SK-MEL-2 = test system: SK-MEL-2
NCI-H226 = test system: NCI-H226
EKVX = test system: EKVX
OVCAR-4 = test system: OVCAR-4
U-251 = test system: U-251
A549 = test system: A549
HOP-92 = test system: HOP-92
RXF 393 = test system: RXF 393
M14 = test system: M14
HOP-62 = test system: HOP-62
MCF7 = test system: MCF7
MOLT-4 = test system: MOLT-4
DU-145 = test system: DU-145
MDA-MB-231 = test system: MDA-MB-231
K562 = test system: K562
SN12C = test system: SN12C
786-0 = test system: 786-0
SNB-19 = test system: SNB-19
NCI-H522 = test system: NCI-H522

Measured: GI50

CCOC(=O)c1cc(C2CCN(CC(C)CC)C2=S)c(-c2cc(C)no2)[nH]1 (centres undefined)
inactive: COLO 205 37.4 µM | SK-MEL-2 > 100 µM | NCI-H226 55.3 µM | EKVX 14.7 µM | OVCAR-4 > 100 µM | U-251 > 100 µM | A549 51.4 µM | HOP-92 38 µM | RXF 393 > 100 µM | M14 > 100 µM | HOP-62 > 100 µM | MCF7 89.3 µM | MOLT-4 44.1 µM | DU-145 > 100 µM | MDA-MB-231 29.6 µM | K562 77.4 µM | SN12C > 100 µM | 786-0 > 100 µM | SNB-19 46.1 µM

C/C=C(C)/C=C/CC(C)CCC=C(C)C (centres undefined)
inactive: COLO 205 > 100 µM | SK-MEL-2 > 100 µM | NCI-H226 > 100 µM | EKVX > 100 µM | OVCAR-4 92.9 µM | U-251 > 100 µM | A549 > 100 µM | HOP-92 > 100 µM | RXF 393 > 100 µM | M14 > 100 µM | MCF7 > 100 µM | MOLT-4 > 100 µM | DU-145 > 100 µM | MDA-MB-231 > 100 µM | K562 > 100 µM | SN12C > 100 µM | 786-0 > 100 µM | SNB-19 > 100 µM

Cn1cco/c1=N/c1ccc(Cl)c(Cl)c1
inactive: COLO 205 > 10 µM | NCI-H226 > 10 µM | EKVX > 10 µM | OVCAR-4 > 10 µM | U-251 > 10 µM | A549 > 10 µM | HOP-92 > 10 µM | M14 > 10 µM | NCI-H522 > 10 µM | HOP-62 > 10 µM | MCF7 > 10 µM | MOLT-4 > 10 µM | DU-145 > 10 µM | MDA-MB-231 > 10 µM | K562 > 10 µM | SN12C > 10 µM | 786-0 > 10 µM | SNB-19 > 10 µM

Nc1nc(Nc2ccc(Cl)cc2)sc1C(=O)c1c[nH]c2ccccc12
inactive: COLO 205 3.8 µM | SK-MEL-2 14.6 µM | NCI-H226 19.3 µM | OVCAR-4 14.7 µM | U-251 12.2 µM | A549 13.6 µM | HOP-92 20 µM | RXF 393 9.27 µM | M14 11.2 µM | HOP-62 21 µM | MCF7 13.8 µM | DU-145 14.2 µM | MDA-MB-231 17.9 µM | K562 6.18 µM | SN12C 15.5 µM | 786-0 4.66 µM | SNB-19 14.3 µM

CC1(C)S[C@@H]2[C@H](NC(=O)[C@H](N)c3ccccc3)C(=O)N2[C@H]1C(=O)O [AMPICILLIN]
inactive: COLO 205 > 100 µM | SK-MEL-2 > 100 µM | EKVX > 100 µM | U-251 > 100 µM | A549 > 100 µM | HOP-92 > 100 µM | M14 > 100 µM | NCI-H522 40.1 µM | HOP-62 > 100 µM | MCF7 > 100 µM | MOLT-4 > 100 µM | DU-145 > 100 µM | MDA-MB-231 > 100 µM | SN12C > 100 µM | 786-0 > 100 µM | SNB-19 > 100 µM

COc1cc(/C=C2\CCC(C)c3c2nc(N)c(C#N)c3-c2cc(OC)c(OC)c(OC)c2)cc(OC)c1OC (centres undefined)
inactive: SK-MEL-2 > 100 µM | EKVX 34.5 µM | OVCAR-4 31.5 µM | U-251 46 µM | A549 > 100 µM | HOP-92 67.5 µM | RXF 393 73.3 µM | M14 45.7 µM | HOP-62 > 100 µM | MCF7 29.9 µM | MOLT-4 25.2 µM | DU-145 55.2 µM | MDA-MB-231 37.2 µM | K562 28.6 µM | SN12C 44.4 µM | 786-0 37.4 µM | SNB-19 54 µM

CNC1C(O)C(OC2C(N)CC(N)C(OC3OC(CN)=CCC3N)C2O)OCC1(C)O (centres undefined)
inactive: COLO 205 > 100 µM | SK-MEL-2 > 100 µM | NCI-H226 > 100 µM | EKVX > 100 µM | U-251 > 100 µM | A549 > 100 µM | HOP-92 > 100 µM | M14 > 100 µM | NCI-H522 > 100 µM | HOP-62 > 100 µM | MCF7 > 100 µM | MOLT-4 > 100 µM | DU-145 > 100 µM | MDA-MB-231 > 100 µM | K562 > 100 µM | SN12C > 100 µM | 786-0 > 100 µM | SNB-19 > 100 µM

CC[S+]([O-])C(=O)N(O)c1ccc(Cl)cc1 (centres undefined)
inactive: COLO 205 36 µM | SK-MEL-2 15.3 µM | NCI-H226 84.1 µM | EKVX 26.7 µM | OVCAR-4 38.3 µM | U-251 19.4 µM | A549 67.3 µM | HOP-92 29.9 µM | RXF 393 19.7 µM | M14 12.8 µM | HOP-62 > 100 µM | MCF7 20.4 µM | MOLT-4 9.64 µM | DU-145 > 100 µM | MDA-MB-231 29.4 µM | K562 16.2 µM | SN12C 22.3 µM | 786-0 21.7 µM | SNB-19 60.7 µM

O=c1n(/N=C/c2ccccc2)c(=O)n2n1C1C=CC2CC1
inactive: COLO 205 > 100 µM | SK-MEL-2 > 100 µM | NCI-H226 > 100 µM | EKVX > 100 µM | U-251 > 100 µM | A549 > 100 µM | HOP-92 > 100 µM | M14 > 100 µM | HOP-62 > 100 µM | MCF7 > 100 µM | MOLT-4 > 100 µM | DU-145 > 100 µM | MDA-MB-231 > 100 µM | K562 > 100 µM | SN12C > 100 µM | 786-0 > 100 µM | SNB-19 > 100 µM

C[C@H](C/C=C/C(C)(C)O)[C@H]1CC[C@@]2(C)[C@@H]3CC[C@H]4C(C)(C)[C@@H](O)CC[C@@]45C[C@@]35CC[C@]12C
inactive: SK-MEL-2 17.3 µM | NCI-H226 17.1 µM | EKVX 14.1 µM | OVCAR-4 16.9 µM | U-251 17.4 µM | A549 14.7 µM | HOP-92 11.3 µM | M14 17.8 µM | NCI-H522 2.37 µM | HOP-62 13.6 µM | MCF7 35.2 µM | MOLT-4 9.91 µM | DU-145 15.4 µM | MDA-MB-231 15.4 µM | K562 6.31 µM | SN12C 13 µM | 786-0 20.9 µM | SNB-19 25.5 µM

c1ccc2c(c1)CC1=C(O2)c2ccccc2OC1
inactive: COLO 205 18.9 µM | SK-MEL-2 23.5 µM | NCI-H226 50.2 µM | EKVX 16.1 µM | OVCAR-4 21.1 µM | U-251 22.3 µM | A549 47.3 µM | HOP-92 21.2 µM | M14 38.2 µM | NCI-H522 19.5 µM | HOP-62 74.5 µM | MCF7 > 100 µM | MOLT-4 23.9 µM | DU-145 35.9 µM | MDA-MB-231 31.8 µM | SN12C 19.6 µM | 786-0 16.6 µM

Reference: ChEMBL document CHEMBL1201862, “PubChem BioAssay data set” (2004)
